{"source": "ChEMBL document CHEMBL4825691", "about": "“Antimicrobial, modulatory, and antibiofilm activity of tt-farnesol on bacterial and fungal strains of importance to human health” (2021)", "assay_type_in_all_cases": "functional", "key": {"Enterococcus faecalis [1]": {"test_system": "Enterococcus faecalis", "experiment": "Antibacterial activity against Enterococcus faecalis ATCC 6569 assessed as inhibition of bacterial growth incubated for 24 hrs by microdilution assay"}, "Enterococcus faecalis [2]": {"test_system": "Enterococcus faecalis", "experiment": "Antibacterial activity against Enterococcus faecalis ATCC 29212 assessed as inhibition of bacterial growth incubated for 24 hrs by microdilution assay"}, "Enterococcus durans": {"test_system": "Enterococcus durans", "experiment": "Antibacterial activity against Enterococcus durans BIO 0114 assessed as inhibition of bacterial growth incubated for 24 hrs by microdilution assay"}, "Streptococcus agalactiae": {"test_system": "Streptococcus agalactiae", "experiment": "Antibacterial activity against Streptococcus agalactiae ATCC 13813 assessed as inhibition of bacterial growth incubated for 24 hrs by microdilution assay"}, "Streptococcus pyogenes": {"test_system": "Streptococcus pyogenes", "experiment": "Antibacterial activity against Streptococcus pyogenes ATCC 19615 assessed as inhibition of bacterial growth incubated for 24 hrs by microdilution assay"}, "Streptococcus mutans": {"test_system": "Streptococcus mutans", "experiment": "Antibacterial activity against Streptococcus mutans ATCC 25175 assessed as inhibition of bacterial growth incubated for 24 hrs by microdilution assay"}, "Streptococcus sobrinus": {"test_system": "Streptococcus sobrinus", "experiment": "Antibacterial activity against Streptococcus sobrinus ATCC 27351 assessed as inhibition of bacterial growth incubated for 24 hrs by microdilution assay"}, "Serratia marcescens": {"test_system": "Serratia marcescens", "experiment": "Antibacterial activity against Serratia marcescens ATCC 13880 assessed as inhibition of bacterial growth incubated for 24 hrs by microdilution assay", "details": "subsp. marcescens ATCC 13880"}, "Salmonella typhimurium": {"test_system": "Salmonella typhimurium", "experiment": "Antibacterial activity against Salmonella enterica subsp. enterica serovar Typhimurium ATCC 14028 assessed as inhibition of bacterial growth incubated for 24 hrs by microdilution assay"}, "Shigella flexneri": {"test_system": "Shigella flexneri", "experiment": "Antibacterial activity against Shigella flexneri CCCD S006 assessed as inhibition of bacterial growth incubated for 24 hrs by microdilution assay"}, "Escherichia coli [3]": {"test_system": "Escherichia coli", "experiment": "Antibacterial activity against Escherichia coli ATCC 25922 assessed as inhibition of bacterial growth incubated for 24 hrs by microdilution assay"}, "Proteus mirabilis": {"test_system": "Proteus mirabilis", "experiment": "Antibacterial activity against Proteus mirabilis ATCC 25933 assessed as inhibition of bacterial growth incubated for 24 hrs by microdilution assay"}, "Escherichia coli [4]": {"test_system": "Escherichia coli", "experiment": "Antibacterial activity against Escherichia coli STEC 2C1 assessed as inhibition of bacterial growth incubated for 24 hrs by microdilution assay"}, "Escherichia coli [5]": {"test_system": "Escherichia coli", "experiment": "Antibacterial activity against Escherichia coli EOL 931 assessed as inhibition of bacterial growth incubated for 24 hrs by microdilution assay"}, "Escherichia coli [6]": {"test_system": "Escherichia coli", "experiment": "Antibacterial activity against Escherichia coli ETEC 2589093 assessed as inhibition of bacterial growth incubated for 24 hrs by microdilution assay"}, "Escherichia coli [7]": {"test_system": "Escherichia coli", "experiment": "Antibacterial activity against Escherichia coli EHEC 933 assessed as inhibition of bacterial growth incubated for 24 hrs by microdilution assay"}, "Escherichia coli [8]": {"test_system": "Escherichia coli", "experiment": "Antibacterial activity against Escherichia coli EAEC I 4913 assessed as inhibition of bacterial growth incubated for 24 hrs by microdilution assay"}, "Escherichia coli [9]": {"test_system": "Escherichia coli", "experiment": "Antibacterial activity against Escherichia coli EIEC E20851 assessed as inhibition of bacterial growth incubated for 24 hrs by microdilution assay"}, "Escherichia coli [10]": {"test_system": "Escherichia coli", "experiment": "Antibacterial activity against Escherichia coli EPEC E234969 assessed as inhibition of bacterial growth incubated for 24 hrs by microdilution assay"}, "Acinetobacter baumannii": {"test_system": "Acinetobacter baumannii", "experiment": "Antibacterial activity against Acinetobacter baumannii ATCC 19606 assessed as inhibition of bacterial growth incubated for 24 hrs by microdilution assay", "details": "ATCC 19606 = CIP 70.34 = JCM 6841"}, "[11]": {"test_system": "Stenotrophomonas maltophilia", "experiment": "Antibacterial activity against Stenotrophomonas maltophilia EM 0104assessed as inhibition of bacterial growth incubated for 24 hrs by microdilution assay"}, "Staphylococcus aureus": {"test_system": "Staphylococcus aureus", "experiment": "Antibacterial activity against Staphylococcus aureus ATCC 29213 assessed as inhibition of bacterial growth incubated for 24 hrs by microdilution assay"}, "[12]": {"test_system": "Staphylococcus epidermidis", "experiment": "Antibacterial activity against Staphylococcus epidermidis ATCC 12228 assessed as inhibition of bacterial growth incubated for 24 hrs by microdilution assay"}, "Klebsiella pneumoniae [13]": {"test_system": "Klebsiella pneumoniae", "experiment": "Antibacterial activity against Klebsiella pneumoniae ATCC 700603 assessed as inhibition of bacterial growth incubated for 24 hrs by microdilution assay"}, "Klebsiella pneumoniae [14]": {"test_system": "Klebsiella pneumoniae", "experiment": "Antibacterial activity against Klebsiella pneumoniae ATCC 1705 assessed as inhibition of bacterial growth incubated for 24 hrs by microdilution assay"}}}
{"molecule": "CC1(C)S[C@@H]2[C@H](NC(=O)[C@H](N)c3ccccc3)C(=O)N2[C@H]1C(=O)O", "note": "[AMPICILLIN]", "values": [{"measurement": "MIC", "setting": "Enterococcus faecalis [1]", "value": 4, "unit": "µg/mL"}, {"measurement": "MIC", "setting": "Enterococcus faecalis [2]", "value": 4, "unit": "µg/mL"}, {"measurement": "MIC", "setting": "Enterococcus durans", "value": 4, "unit": "µg/mL"}, {"measurement": "MIC", "setting": "Streptococcus agalactiae", "value": 0.25, "unit": "µg/mL"}, {"measurement": "MIC", "setting": "Streptococcus pyogenes", "value": 0.0625, "unit": "µg/mL"}, {"measurement": "MIC", "setting": "Streptococcus mutans", "value": 0.5, "unit": "µg/mL"}, {"measurement": "MIC", "setting": "Streptococcus sobrinus", "value": 0.125, "unit": "µg/mL"}, {"measurement": "MIC", "setting": "Serratia marcescens", "value": 4, "unit": "µg/mL"}, {"measurement": "MIC", "setting": "Salmonella typhimurium", "value": 4, "unit": "µg/mL"}, {"measurement": "MIC", "setting": "Shigella flexneri", "value": 4, "unit": "µg/mL"}, {"measurement": "MIC", "setting": "Escherichia coli [3]", "value": 4, "unit": "µg/mL"}]}
{"molecule": "O=C(O)c1cn(C2CC2)c2cc(N3CCNCC3)c(F)cc2c1=O", "note": "[CIPROFLOXACIN]", "values": [{"measurement": "MIC", "setting": "Proteus mirabilis", "value": 0.25, "unit": "µg/mL"}]}
{"molecule": "C[C@@H](O)[C@H]1C(=O)N2C(C(=O)O)=C(S[C@@H]3CN[C@H](C(=O)N(C)C)C3)[C@H](C)[C@H]12", "note": "[MEROPENEM]", "values": [{"measurement": "MIC", "setting": "Escherichia coli [4]", "value": 0.625, "unit": "µg/mL"}, {"measurement": "MIC", "setting": "Escherichia coli [5]", "value": 0.625, "unit": "µg/mL"}, {"measurement": "MIC", "setting": "Escherichia coli [6]", "value": 0.625, "unit": "µg/mL"}, {"measurement": "MIC", "setting": "Escherichia coli [7]", "value": 0.625, "unit": "µg/mL"}, {"measurement": "MIC", "setting": "Escherichia coli [8]", "value": 0.625, "unit": "µg/mL"}, {"measurement": "MIC", "setting": "Escherichia coli [9]", "value": 0.625, "unit": "µg/mL"}, {"measurement": "MIC", "setting": "Escherichia coli [10]", "value": 0.625, "unit": "µg/mL"}]}
{"molecule": "CN(C)c1ccc(O)c2c1C[C@H]1C[C@H]3[C@H](N(C)C)C(O)=C(C(N)=O)C(=O)[C@@]3(O)C(O)=C1C2=O", "note": "[MINOCYCLINE]", "values": [{"measurement": "MIC", "setting": "Acinetobacter baumannii", "value": 2, "unit": "µg/mL"}, {"measurement": "MIC", "setting": "[11]", "value": 2, "unit": "µg/mL"}]}
{"molecule": "Cc1onc(-c2ccccc2)c1C(=O)N[C@@H]1C(=O)N2[C@@H]1SC(C)(C)[C@@H]2C(=O)O", "note": "[OXACILLIN]", "values": [{"measurement": "MIC", "setting": "Staphylococcus aureus", "value": 0.25, "unit": "µg/mL"}, {"measurement": "MIC", "setting": "[12]", "value": 0.25, "unit": "µg/mL"}]}
{"molecule": "COLISTIN", "values": [{"measurement": "MIC", "setting": "Klebsiella pneumoniae [13]", "value": 1, "unit": "µg/mL"}, {"measurement": "MIC", "setting": "Klebsiella pneumoniae [14]", "value": 1, "unit": "µg/mL"}]}
